In US9364474B2, “Method for treatment of neurologic dysfunction” (MedDEV, Inc., priority 2004, dated 2016):

Columns and labels:
[1] = tested on: patient diagnosed with chronic schizophrenia; assay: Case example: patient with chronic schizophrenia, transdermal reserpine spray (with prior medication history); assay type: in vivo, human; conditions: prior treatment
patient with Autism = assay: Case examples: patients with Autism (ASD), transdermal reserpine (with prior medication history); assay type: in vivo, human; conditions: for success of prior treatments: ASD Example Three: person, prior treatments tried
Experimental: The treatment composition is suitably applied in a single daily dose, e.g., 0.01 mg of the MAO-A agonist in 0.05 ml of spray solution applied once every morning.
Prior to administration of the present invention (transdermal reserpine), the patient's parents were provided with an informed consent documenting the potential risks, benefits and alternatives to this treatment. The patient was started on a dose of Reserpine at a 4× dilution resulting in a total dose of 0.01 mg. […] They were also given approximately 1400 mg of Calcium every morning.

MAO-A = conditions: Egashira et al (1996); Gnerre et al (2001); cited from earlier work
MAO-B = target: T1, MAO-B (Homo sapiens, UniProt P27338); conditions: Egashira et al (1996); Gnerre et al (2001); cited from earlier work
T1 sequence (P27338 1-520): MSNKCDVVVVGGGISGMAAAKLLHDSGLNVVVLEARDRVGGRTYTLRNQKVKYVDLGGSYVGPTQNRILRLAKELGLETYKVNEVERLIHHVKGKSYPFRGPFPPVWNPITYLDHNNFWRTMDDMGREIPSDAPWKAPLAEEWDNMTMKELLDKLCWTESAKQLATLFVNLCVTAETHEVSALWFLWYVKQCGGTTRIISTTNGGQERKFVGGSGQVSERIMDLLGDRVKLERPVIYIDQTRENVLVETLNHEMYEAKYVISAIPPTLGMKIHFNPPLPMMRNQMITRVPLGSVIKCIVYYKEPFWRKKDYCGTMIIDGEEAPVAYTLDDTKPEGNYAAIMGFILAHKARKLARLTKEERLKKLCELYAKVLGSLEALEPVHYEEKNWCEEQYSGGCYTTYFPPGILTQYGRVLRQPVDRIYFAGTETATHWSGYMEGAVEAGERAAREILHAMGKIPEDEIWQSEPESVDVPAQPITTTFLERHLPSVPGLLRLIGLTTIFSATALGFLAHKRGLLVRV

aldehyde dehydrogenase = conditions: literature; cited from earlier work
[2] = tested on: ethanol-preferring laboratory hamsters; conditions: cited from earlier work
[3] = tested on: patient suffering from depression; conditions: Depression Example Four; taking nortriptyline
Experimental: The treatment composition is suitably applied in a single daily dose, e.g., 0.01 mg of the MAO-A agonist in 0.05 ml of transdermal cream applied once every morning. Caffeine may also be included in the composition to compensate for the anti-hypertensive effect of the preferred reserpine; the caffeine may suitably be included in an amount from about 50-100 mg/dose.
Treatment was in the form of 0.01 mg of reserpine per 0.05 ml of transdermal cream, applied transdermally once a day in the morning.
The treatment consisted of 0.01 mg of reserpine per 0.05 ml of cream, applied transdermally by rubbing the cream into the skin once a day in the morning.
The treatment consisted of 0.01 mg of the reserpine per 0.05 ml of cream, applied transdermally by rubbing the cream into the skin once a day in the morning.
The patient discontinued the use of nortriptyline and the same day started the treatment of the present invention, using 0.01 mg of the reserpine per 0.05 ml cream, applied transdermally by rubbing the cream into the skin once a day in the morning.
The patient then started the treatment of the present invention, using 0.01 mg of the MAO-A activity stimulator (reserpine) per 0.05 ml cream, applied transdermally by rubbing the cream into the skin once a day in the morning.

Structure (SMILES)	activity towards MAO-A (MAO-A)	activity towards MAO-B relative to MAO-A (MAO-B)	other results
O=C1CCc2ccc(OCCCCN3CCN(c4cccc(Cl)c4Cl)CC3)cc2N1 [Abilify]			tolerability and efficacy of prior medication ([1]; Schizophrenia Example One): tolerated better but still had many symptoms unresolved
COC(=O)C(c1ccccc1)C1CCCCN1 (stereo not drawn) [Ritalin]			success of prior treatments (patient with Autism): none to minimal success
OCCOCCN1CCN(C2=Nc3ccccc3Sc3ccccc32)CC1 [Seroquel]			success of prior treatments (patient with Autism): none to minimal success
CN(C)CCC=C1c2ccccc2CCc2ccccc21 [amitriptyline]	inhibitory activity	clearly more potent selectivity for MAO-B	
CN(C)CCCN1c2ccccc2CCc2ccc(Cl)cc21 [clomipramine]	inhibitory activity	clearly more potent selectivity for MAO-B	
O=c1c(-c2ccc(O)cc2)coc2cc(O[C@@H]3O[C@H](CO)[C@@H](O)[C@H](O)[C@H]3O)ccc12 [daidzin]			effect on aldehyde dehydrogenase (aldehyde dehydrogenase): inhibits aldehyde dehydrogenase; effect on ethanol intake [2]: suppress ethanol intake
CCCC(CCC)C(=O)O [depakote]			success of prior treatments (patient with Autism): none to minimal success; side effects of prior medication ([1]; Schizophrenia Example One: person, discontinued): extremely lethargic and obese
CN(C)CCC=C1c2ccccc2COc2ccccc21 [doxepine]	inhibitory activity	clearly more potent selectivity for MAO-B	
CNCCC(Oc1ccc(C(F)(F)F)cc1)c1ccccc1 (stereo not drawn) [fluoxetine]	inhibitory activity	clearly more potent selectivity for MAO-B	
COCCCC/C(=N\OCCN)c1ccc(C(F)(F)F)cc1 [fluvoxamine]	inhibitory activity	clearly more potent selectivity for MAO-B	
CN(C)CCCN1c2ccccc2CCc2ccccc21 [imipramine]	inhibitory activity	clearly more potent selectivity for MAO-B	
CNCCCC12CCC(c3ccccc31)c1ccccc12 [maprotiline]	inhibitory activity	clearly more potent selectivity for MAO-B	
COc1ccc2[nH]cc(CCNC(C)=O)c2c1 [melatonin]			success of prior treatments (patient with Autism): none to minimal success
O=C1CC[C@@]2(O)[C@H]3Cc4ccc(O)c5c4[C@@]2(CCN3CC2CC2)[C@H]1O5 [naltrexone]			success of prior treatments (patient with Autism): none to minimal success
CN1Cc2c(N)cccc2C(c2ccccc2)C1 (stereo not drawn) [nomifensine]	inhibitory activity	clearly more potent selectivity for MAO-B	
CNCCC=C1c2ccccc2CCc2ccccc21 [nortriptyline]	inhibitory activity	clearly more potent selectivity for MAO-B	symptoms persisting despite prior medication [3]: Decreased energy, fatigue • Early morning awakening
OCCOCCN1CCN(C2=Nc3ccccc3Sc3ccccc32)CC1 [quetiapine]			functional benefit of prior medication (patient with Autism; ASD Example One, prior trials at therapeutic doses, only quetiapine of six medications): functional improvements
CCOc1ccccc1OCC1CNCCO1 (stereo not drawn) [viloxazine]	inhibitory activity	clearly more potent selectivity for MAO-B	
CN(C)C/C=C(/c1ccc(Br)cc1)c1cccnc1 [zimeldine]	inhibitory activity	clearly more potent selectivity for MAO-B	
